Source: PMC5869712 (Scientific Reports, 2018)
Like-named read-outs stand apart in the source and are kept apart here.

Legend:
[1] = biological target: T1, MKK7β (Homo sapiens, UniProt O14733); assay: Eurofins Kinase Profiler panel; format: biochemical
T1 construct: Eurofins Pharma Discovery Services UK Limited (Kinase Profiler service)

[2] = biological target: T2, JAK3 (Homo sapiens, UniProt P52333); assay: Cys-containing kinase family panel (EurofinsCerep); format: biochemical
T2 construct: ChemPartner (contract assay service)
T2 sequence (P52333 1-1124): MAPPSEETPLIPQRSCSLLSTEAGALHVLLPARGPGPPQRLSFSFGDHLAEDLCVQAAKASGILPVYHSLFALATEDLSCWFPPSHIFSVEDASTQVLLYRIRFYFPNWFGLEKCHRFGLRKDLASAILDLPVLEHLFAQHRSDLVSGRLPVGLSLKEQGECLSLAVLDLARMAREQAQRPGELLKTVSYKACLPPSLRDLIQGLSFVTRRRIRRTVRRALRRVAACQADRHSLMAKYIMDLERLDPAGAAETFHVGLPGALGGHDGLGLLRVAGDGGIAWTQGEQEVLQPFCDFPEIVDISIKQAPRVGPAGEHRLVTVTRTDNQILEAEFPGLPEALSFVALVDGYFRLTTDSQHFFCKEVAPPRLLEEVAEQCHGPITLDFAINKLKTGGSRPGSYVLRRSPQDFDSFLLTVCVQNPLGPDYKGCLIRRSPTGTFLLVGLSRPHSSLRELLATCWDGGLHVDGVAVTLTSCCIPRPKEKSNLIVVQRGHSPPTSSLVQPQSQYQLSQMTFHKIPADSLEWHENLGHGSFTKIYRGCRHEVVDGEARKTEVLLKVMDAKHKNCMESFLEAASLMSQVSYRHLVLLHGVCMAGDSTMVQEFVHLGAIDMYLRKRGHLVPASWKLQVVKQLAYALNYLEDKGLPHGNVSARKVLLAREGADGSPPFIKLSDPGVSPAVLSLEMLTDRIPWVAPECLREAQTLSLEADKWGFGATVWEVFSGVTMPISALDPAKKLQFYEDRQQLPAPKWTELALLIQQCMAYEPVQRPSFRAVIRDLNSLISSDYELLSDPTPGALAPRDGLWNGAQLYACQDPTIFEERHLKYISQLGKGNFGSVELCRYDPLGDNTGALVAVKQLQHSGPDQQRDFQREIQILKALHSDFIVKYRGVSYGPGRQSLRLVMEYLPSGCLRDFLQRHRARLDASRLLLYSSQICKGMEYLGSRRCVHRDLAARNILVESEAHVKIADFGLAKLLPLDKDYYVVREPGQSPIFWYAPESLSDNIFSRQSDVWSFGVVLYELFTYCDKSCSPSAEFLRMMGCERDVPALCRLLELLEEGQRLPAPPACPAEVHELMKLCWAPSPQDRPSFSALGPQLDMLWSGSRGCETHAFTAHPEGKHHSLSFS

[3] = Acute toxicity in SD rats, oral; details: Sprague Dawley, rat, in vivo, po
[4] = tested on: SD rats; assay: Acute toxicity in SD rats, oral; details: SD rats; oral 0.4 g/kg to 2.0 g/kg
[5] = biological target: T3, IKKβ (Homo sapiens, UniProt O14920); assay: Eurofins Kinase Profiler panel; format: biochemical; details: read-out: % inhibition (1μM), DMSO control=100%, lower=stronger
T3 construct: purchased Eurofins KinaseProfiler (Eurofins Pharma Discovery Services UK, Dundee); JAK3 also ChemPartner

[6] = tested on: JAK-STAT pathway in joints of CIA mice; assay: JAK/STAT phosphorylation in joint tissue of CIA mice, Western blot; format: in vivo, mouse; details: dose-dependent
Source text: Proteins were visualized with enhanced chemiluminescence.

[7] = biological target: T4, EGFR (Homo sapiens, UniProt P00533); assay: Cys-containing kinase family panel (EurofinsCerep); format: biochemical
T4 construct: EurofinsCerep (contract assay service)
Source text: (§1) The assay protocol guides are commercially available from ChemPartner.

[8] = biological target: T5, TXK (Homo sapiens, UniProt P42681); assay: Cys-containing kinase family panel (EurofinsCerep); format: biochemical
T5 construct: EurofinsCerep (contract assay service)
Source text: as §1

[9] = biological target: T6, TEC (Homo sapiens, UniProt P42680); assay: Cys-containing kinase family panel (EurofinsCerep); format: biochemical
T6 construct: EurofinsCerep (contract assay service)
Source text: as §1

[10] = biological target: T7, JNK2α2 (Homo sapiens, UniProt P45984); assay: Eurofins Kinase Profiler panel; format: biochemical; details: read-out: % inhibition (1μM), DMSO control=100%, lower=stronger
T7 construct: purchased Eurofins KinaseProfiler (Eurofins Pharma Discovery Services UK, Dundee); JAK3 also ChemPartner

[11] = biological target: T8, PAK4 (Homo sapiens, UniProt O96013); assay: Eurofins Kinase Profiler panel; format: biochemical; details: read-out: % inhibition (1μM), DMSO control=100%, lower=stronger
T8 construct: purchased Eurofins Pharma Discovery Services UK Limited (Kinase Profiler screening platform)
Source text: as §1

[12] = tested on: cytokine gene transcription in joint tissue of CIA mice; assay: Cytokine gene expression in joints of CIA mice by RT-PCR; format: in vivo, mouse
[13] = biological target: T9, MEK1 (Homo sapiens, UniProt Q02750); assay: Eurofins Kinase Profiler panel; format: biochemical; details: read-out: % inhibition (1μM), DMSO control=100%, lower=stronger
T9 construct: purchased Eurofins KinaseProfiler (Eurofins Pharma Discovery Services UK, Dundee); JAK3 also ChemPartner

[14] = tested on: G-CSF-induced JAK/STAT3 phosphorylation in HEL cells (JAK1/JAK2); assay: STAT3 phosphorylation induced by G-CSF in HEL cells, Western blot; details: for IC50: Homo sapiens
[15] = biological target: T10, B-Raf (Homo sapiens, UniProt P15056); assay: Eurofins Kinase Profiler panel; format: biochemical; details: read-out: % inhibition (1μM), DMSO control=100%, lower=stronger
T10 construct: purchased Eurofins KinaseProfiler (Eurofins Pharma Discovery Services UK, Dundee); JAK3 also ChemPartner
T10 sequence (P15056 whole entry): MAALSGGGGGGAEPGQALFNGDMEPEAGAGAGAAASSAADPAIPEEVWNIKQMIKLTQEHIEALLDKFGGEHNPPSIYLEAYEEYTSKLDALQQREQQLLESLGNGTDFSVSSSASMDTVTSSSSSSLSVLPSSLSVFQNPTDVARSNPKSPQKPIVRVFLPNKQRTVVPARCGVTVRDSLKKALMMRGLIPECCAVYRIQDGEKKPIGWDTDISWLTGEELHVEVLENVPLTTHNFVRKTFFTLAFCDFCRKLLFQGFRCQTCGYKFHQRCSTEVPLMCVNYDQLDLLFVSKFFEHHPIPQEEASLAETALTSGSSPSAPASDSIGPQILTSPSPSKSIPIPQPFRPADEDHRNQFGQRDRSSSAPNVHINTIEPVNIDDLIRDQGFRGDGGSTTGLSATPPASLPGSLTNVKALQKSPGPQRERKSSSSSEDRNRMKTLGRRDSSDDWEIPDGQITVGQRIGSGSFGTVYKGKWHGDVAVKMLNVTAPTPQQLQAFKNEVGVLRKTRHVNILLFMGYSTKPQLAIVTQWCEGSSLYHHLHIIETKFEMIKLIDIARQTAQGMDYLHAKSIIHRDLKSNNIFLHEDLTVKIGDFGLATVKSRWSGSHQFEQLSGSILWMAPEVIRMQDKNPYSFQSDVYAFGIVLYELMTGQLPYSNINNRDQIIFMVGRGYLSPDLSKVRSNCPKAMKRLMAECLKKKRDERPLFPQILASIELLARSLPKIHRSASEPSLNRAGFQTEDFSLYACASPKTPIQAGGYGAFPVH

[16] = biological target: T11, JAK2 (Homo sapiens, UniProt O60674); assay: Enzymatic Caliper Mobility Shift Assay, ATP at Km; format: biochemical
T11 construct: ChemPartner (contract assay service)
T11 sequence (O60674 whole entry): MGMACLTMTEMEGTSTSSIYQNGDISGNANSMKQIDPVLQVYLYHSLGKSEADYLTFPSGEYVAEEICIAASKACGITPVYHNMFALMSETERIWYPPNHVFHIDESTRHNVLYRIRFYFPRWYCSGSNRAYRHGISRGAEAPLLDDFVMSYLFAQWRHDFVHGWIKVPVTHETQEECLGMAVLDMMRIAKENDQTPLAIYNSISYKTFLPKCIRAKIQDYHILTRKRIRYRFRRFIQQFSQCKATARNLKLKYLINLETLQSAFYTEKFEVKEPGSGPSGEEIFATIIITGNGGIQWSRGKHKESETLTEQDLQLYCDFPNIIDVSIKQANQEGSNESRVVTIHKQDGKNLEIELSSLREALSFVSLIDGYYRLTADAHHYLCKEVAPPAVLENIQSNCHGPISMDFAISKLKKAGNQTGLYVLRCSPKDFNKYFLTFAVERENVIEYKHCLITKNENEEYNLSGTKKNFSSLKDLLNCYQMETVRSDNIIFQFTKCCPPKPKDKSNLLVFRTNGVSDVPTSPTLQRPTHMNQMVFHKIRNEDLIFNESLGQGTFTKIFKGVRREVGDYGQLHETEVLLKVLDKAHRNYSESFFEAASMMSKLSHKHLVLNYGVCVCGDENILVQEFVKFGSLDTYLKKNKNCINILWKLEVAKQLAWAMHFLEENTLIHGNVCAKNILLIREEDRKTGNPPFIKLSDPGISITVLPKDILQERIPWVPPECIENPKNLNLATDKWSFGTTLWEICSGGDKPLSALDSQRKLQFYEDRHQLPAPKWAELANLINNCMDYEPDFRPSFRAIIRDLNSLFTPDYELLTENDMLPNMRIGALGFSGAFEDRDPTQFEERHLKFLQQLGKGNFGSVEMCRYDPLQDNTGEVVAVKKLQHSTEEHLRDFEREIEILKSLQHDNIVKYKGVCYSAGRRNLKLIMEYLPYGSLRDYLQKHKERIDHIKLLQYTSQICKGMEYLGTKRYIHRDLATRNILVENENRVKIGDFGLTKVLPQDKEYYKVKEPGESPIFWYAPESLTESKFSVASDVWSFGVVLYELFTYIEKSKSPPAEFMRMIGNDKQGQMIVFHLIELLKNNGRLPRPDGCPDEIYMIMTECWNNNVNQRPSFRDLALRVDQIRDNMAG
Source text: as §1

[17] = biological target: TYK2 (Homo sapiens, UniProt P29597); assay: Enzymatic Caliper Mobility Shift Assay, ATP at Km; format: biochemical
Sequence of TYK2 (P29597 whole entry): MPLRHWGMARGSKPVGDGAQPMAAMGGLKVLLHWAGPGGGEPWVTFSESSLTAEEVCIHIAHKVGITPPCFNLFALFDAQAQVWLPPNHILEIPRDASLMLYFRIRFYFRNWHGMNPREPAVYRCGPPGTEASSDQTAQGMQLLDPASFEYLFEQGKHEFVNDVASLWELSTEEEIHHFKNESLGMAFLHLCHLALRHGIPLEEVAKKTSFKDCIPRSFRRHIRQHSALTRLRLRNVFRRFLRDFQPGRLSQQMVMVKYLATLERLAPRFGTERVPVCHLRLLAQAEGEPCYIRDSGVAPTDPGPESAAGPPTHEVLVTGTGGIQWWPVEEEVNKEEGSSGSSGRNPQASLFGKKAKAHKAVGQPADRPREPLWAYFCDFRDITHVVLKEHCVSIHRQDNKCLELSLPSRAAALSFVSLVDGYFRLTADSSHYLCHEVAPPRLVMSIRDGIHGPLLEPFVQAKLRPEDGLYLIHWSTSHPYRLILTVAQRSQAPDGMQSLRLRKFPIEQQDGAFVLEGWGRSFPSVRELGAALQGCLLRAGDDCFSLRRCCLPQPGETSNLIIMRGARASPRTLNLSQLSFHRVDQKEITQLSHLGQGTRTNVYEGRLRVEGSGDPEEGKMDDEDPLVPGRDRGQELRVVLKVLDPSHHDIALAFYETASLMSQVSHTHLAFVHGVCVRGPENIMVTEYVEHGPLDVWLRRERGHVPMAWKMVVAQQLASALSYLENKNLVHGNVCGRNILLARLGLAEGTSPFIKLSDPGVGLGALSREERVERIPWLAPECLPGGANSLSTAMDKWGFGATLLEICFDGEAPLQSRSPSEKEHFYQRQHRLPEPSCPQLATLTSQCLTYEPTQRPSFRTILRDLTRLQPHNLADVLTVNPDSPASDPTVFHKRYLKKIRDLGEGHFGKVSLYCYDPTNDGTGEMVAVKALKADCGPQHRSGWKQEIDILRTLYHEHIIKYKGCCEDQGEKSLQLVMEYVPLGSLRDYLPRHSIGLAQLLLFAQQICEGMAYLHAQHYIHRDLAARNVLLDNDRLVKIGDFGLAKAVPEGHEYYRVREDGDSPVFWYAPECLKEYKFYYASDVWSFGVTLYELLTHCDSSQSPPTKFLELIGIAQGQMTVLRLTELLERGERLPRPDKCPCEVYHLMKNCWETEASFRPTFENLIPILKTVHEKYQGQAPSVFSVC
Source text: as §1

[18] = biological target: T12, JAK1 (Homo sapiens, UniProt P23458); assay: Enzymatic Caliper Mobility Shift Assay, ATP at Km; format: biochemical
T12 construct: ChemPartner (contract assay service)
T12 sequence (P23458 whole entry): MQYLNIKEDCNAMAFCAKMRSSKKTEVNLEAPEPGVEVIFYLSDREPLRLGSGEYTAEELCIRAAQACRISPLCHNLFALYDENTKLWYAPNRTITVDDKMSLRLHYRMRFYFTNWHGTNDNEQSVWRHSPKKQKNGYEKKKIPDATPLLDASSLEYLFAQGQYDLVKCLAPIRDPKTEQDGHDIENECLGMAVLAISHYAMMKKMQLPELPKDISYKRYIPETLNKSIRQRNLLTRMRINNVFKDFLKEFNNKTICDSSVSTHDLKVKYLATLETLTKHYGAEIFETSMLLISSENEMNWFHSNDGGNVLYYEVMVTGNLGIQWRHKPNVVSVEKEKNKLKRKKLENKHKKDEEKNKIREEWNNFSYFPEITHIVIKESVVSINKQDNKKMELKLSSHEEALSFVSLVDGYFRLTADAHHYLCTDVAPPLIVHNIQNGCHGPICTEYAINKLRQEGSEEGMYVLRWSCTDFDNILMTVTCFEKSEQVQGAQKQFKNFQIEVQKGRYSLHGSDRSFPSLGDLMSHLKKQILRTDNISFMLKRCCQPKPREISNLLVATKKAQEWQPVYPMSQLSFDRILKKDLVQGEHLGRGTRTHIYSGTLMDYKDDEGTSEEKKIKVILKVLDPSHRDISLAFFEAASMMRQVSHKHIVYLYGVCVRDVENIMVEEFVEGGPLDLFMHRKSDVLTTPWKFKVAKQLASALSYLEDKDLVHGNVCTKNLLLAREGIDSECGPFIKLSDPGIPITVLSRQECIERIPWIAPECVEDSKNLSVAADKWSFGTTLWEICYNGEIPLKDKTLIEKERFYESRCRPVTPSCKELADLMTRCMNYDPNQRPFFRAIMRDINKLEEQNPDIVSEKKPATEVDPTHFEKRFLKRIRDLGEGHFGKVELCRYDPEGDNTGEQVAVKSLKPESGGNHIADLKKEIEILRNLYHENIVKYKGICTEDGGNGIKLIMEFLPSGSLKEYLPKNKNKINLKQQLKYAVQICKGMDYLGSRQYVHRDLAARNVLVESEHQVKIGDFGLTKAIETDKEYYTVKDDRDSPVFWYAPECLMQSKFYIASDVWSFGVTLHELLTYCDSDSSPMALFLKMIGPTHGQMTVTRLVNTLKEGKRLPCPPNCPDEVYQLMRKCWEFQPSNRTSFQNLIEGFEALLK
Source text: as §1

[19] = biological target: T2, JAK3; assay: Enzymatic Caliper Mobility Shift Assay, ATP at Km; format: biochemical
Source text: as §1

[20] = biological target: T13, Aurora-B (Homo sapiens, UniProt Q96GD4); assay: Eurofins Kinase Profiler panel; format: biochemical
T13 construct: Eurofins Pharma Discovery Services UK Limited (Kinase Profiler service)
T13 sequence (Q96GD4 whole entry): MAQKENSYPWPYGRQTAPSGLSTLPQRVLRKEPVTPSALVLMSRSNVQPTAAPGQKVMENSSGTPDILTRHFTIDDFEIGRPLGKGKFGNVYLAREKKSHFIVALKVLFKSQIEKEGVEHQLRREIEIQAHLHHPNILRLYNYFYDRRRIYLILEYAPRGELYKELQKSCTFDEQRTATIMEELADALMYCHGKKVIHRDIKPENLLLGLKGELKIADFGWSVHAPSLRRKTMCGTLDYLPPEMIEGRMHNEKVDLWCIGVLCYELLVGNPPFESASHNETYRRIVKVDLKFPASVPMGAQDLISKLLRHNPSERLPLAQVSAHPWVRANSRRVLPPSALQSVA

[21] = tested on: GM-CSF-induced STAT5 phosphorylation (JAK2); assay: GM-CSF-induced pSTAT5 in total lymphocytes in hPBMCs, flow cytometry; format: cell-based; details: Homo sapiens, Lymphocyte, hPBMC total lymphocytes, trigger GM-CSF, readout pSTAT5
[22] = tested on: panel of 81 representative kinases; details: 1 μM
[23] = read-out: % inhibition (1μM), 1 µM, DMSO control=100%, lower=stronger

T1 sequence (O14733 whole entry): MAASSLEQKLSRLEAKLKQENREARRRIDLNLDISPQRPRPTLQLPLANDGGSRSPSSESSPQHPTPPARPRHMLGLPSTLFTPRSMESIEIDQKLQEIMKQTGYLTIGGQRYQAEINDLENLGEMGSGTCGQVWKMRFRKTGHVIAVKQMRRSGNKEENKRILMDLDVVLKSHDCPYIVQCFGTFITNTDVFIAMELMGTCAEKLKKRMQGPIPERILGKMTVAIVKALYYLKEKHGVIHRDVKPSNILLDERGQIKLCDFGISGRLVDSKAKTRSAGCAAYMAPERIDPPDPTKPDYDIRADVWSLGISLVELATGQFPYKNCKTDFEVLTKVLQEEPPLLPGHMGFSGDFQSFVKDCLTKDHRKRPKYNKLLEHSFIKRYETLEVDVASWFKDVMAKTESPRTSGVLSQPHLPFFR

C=CC(=O)N[C@@H]1CCCN(c2ncnc3[nH]ccc23)C1 [RB1] showed an IC50 ([1]; estimated) of over 0.8 µM, an activity at 1 µM [1, 23] of 20% and an inhibition at 1 µM [2] of 99.1%. The LD50 [3] was over 2000 mg/kg, the “adverse effects on body weight, behaviour or appetite” value [4] was “no observable adverse effects” and the activity at 1 µM [5] was 105%. For the same molecule, the “phosphorylation status of JAKs and STATs in joint tissue” value [6] was “hypo-phosphorylation of JAK3, STAT1 and STAT3”, the inhibition at 1 µM [7] was 11.2% and the inhibition at 1 µM [8] was 7.25%. For the same molecule, the inhibition at 1 µM [9] was 14%, the activity at 1 µM [10] was 109% and the activity at 1 µM [11] was 81%. For the same molecule, the IL-10 expression [12] was “significantly increased its expression”, the “gene transcription levels of IL-1, IL-2 and IL-6” value [12] was “dose-dependently reduced” and the “TNF-α and IFN-γ gene transcription levels” value ([12]; p < 0.01) was “significantly reduced”. The activity at 1 µM [13] was 92%, the “G-CSF-induced phosphorylation of STAT3” value ([14]; HEL cells, RB1 at concentrations over 50 μM) was “not affected” and the “Selectivity JAK1/JAK3” value ([14]; HEL, G-CSF, pSTAT3) was over 1000. The “Selectivity JAK2/JAK3” value ([14]; HEL, G-CSF, pSTAT3) was over 1000, the IC50 ([14]; HEL, read-out: IC50 (nM) JAK1) was over 50000 nM and the IC50 ([14]; HEL, read-out: IC50 (nM) JAK2) was over 50000 nM. For the same molecule, the activity at 1 µM [15] was 90%, the IC50 [16] was over 5 µM and the “inhibition of JAK2” value ([16]; at concentrations up to 5 µM) was “did not inhibit”. For the same molecule, the IC50 ([17]; TYK2, ATP 16.0 μM (Km)) was over 5 µM, the “inhibition of TYK2” value ([17]; at concentrations up to 5 µM) was “did not inhibit” and the IC50 [18] was over 5 µM. The “inhibition of JAK1” value ([18]; at concentrations up to 5 µM) was “did not inhibit”, the IC50 [19] was 0.04 µM and the “preference for JAK3 above JAK2, JAK1 and TYK2” value ([19]; kinase assay) was “over 100 fold”. For the same molecule, the IC50 ([20]; estimated) was over 0.8 µM, the activity at 1 µM [20, 23] was 12% and the IC50 [21] was over 10 µM. For the same molecule, the “selectivity score S(1)” value ([22]; kinases with ctrl% < 1% / kinases tested) was 0.012, the “selectivity score S(10)” value ([22]; kinases with ctrl% < 10% / kinases tested) was 0.012 and the “selectivity score S(35)” value ([22]; kinases with ctrl% < 35% / kinases tested) was 0.086.
